Test results taken from patent US11396511B2, “Substituted 9,13b-dihydro-1H-dibenzo[c,f]imidazo[1,5-a]azepin-3-ylbenzamides as anti-inflammatory and analgesic agents” (FRONTBIO CO., LTD., priority 2017, dated 2022).

Legend:
Raw 264.7 cells [1] = assay: Measurement of NO production in LPS-stimulated Raw 264.7 cells; type: cell-based; details: for inhibition at 12.5 µM / inhibition at 25 µM / inhibition at 50 µM / inhibition at 100 µM: Mus musculus, RAW264.7, LPS 100 ng/ml, 24 h
Protocol: Raw 264.7 cells were plated in a 96-well cell culture plate (50,000 cells/well). Lipopolysaccharide (LPS) was diluted to 100 ng/ml and the dilution was added to the cell culture media The LPS stimulus was applied for 24 h to induce the activity of the Raw 264.7 cells and supernatants (50 μl each) obtained from the 96-well cell culture plate were plated in a new plate. 50 μl of a sulfanilamide solution was added and the reaction was allowed to proceed for 10 min. 50 μl of a NED solution was added and the reaction was allowed to proceed for 10 min. The amount of NO produced from the cells in the cell culture media was determined by measuring the absorbance at a wavelength of 540 nm.

Raw 264.7 cells [2] = assay: Cell viability measurement (MTS); type: cell-based
Protocol: Raw 264.7 cells were plated in a 96-well cell culture plate (50,000 cells/well). The cell culture media were removed from the 96-well cell culture plate. 100 μl of MTS reagent (CellTiter 96 AQueous One Solution Cell Proliferation Assay, Promega) was added to each well and the reaction was allowed to proceed at 37° C. for 20 min. After the reaction was finished, the cell viability were determined by measuring the absorbance at a wavelength of 490 nm.

Row | Structure (SMILES) | reduction of NO production (in words) (Raw 264.7 cells [1]; 100 μM, LPS (100 ng/ml)) | inhibition at 12.5 µM (Raw 264.7 cells [1]) | inhibition at 25 µM (Raw 264.7 cells [1]) | inhibition at 50 µM (Raw 264.7 cells [1]) | inhibition at 100 µM (Raw 264.7 cells [1]; 100 μM) | cell toxicity (cell viability, MTS) (Raw 264.7 cells [2]) | reduction of NO production (in words) (Raw 264.7 cells [1]; together with LPS (100 ng/ml))
1 | NC1=NCC2c3ccccc3Cc3ccccc3N12 (stereo not drawn) [Epinastine, epinastine] | found to reduce the production of NO | 0% | 5.48% | 18.7% | 33.4% | no cell toxicities were observed | –
2 | O=C(O)c1ccccc1O [Salicylic acid] | – | 0% | 1.27% | 7.18% | 15.6% | no cell toxicities were observed | less effective in reducing the production of NO
3 | CC(=O)Oc1ccccc1C(=O)O [Aspirin, acetylsalicylic acid (aspirin)] | – | 0% | 0% | 9.29% | 12.4% | no cell toxicities were observed | less effective in reducing the production of NO
